Measurements: patent publication US20060097218A1, “Etchants containing filterable surfactant” (General Chemical Performance Products LLC, priority 2004, published 2006)

Assays:
Format in all cases: physicochemical
[1] = Surface tension measurement of surfactant-containing etchant; details: BOE 7-1 (about 35% NH4F, about 6.3% HF); 25° C.; prior to filtration; incremental additions until ST stabilized or saturation
Protocol: In the examples, a surfactant was added to a mixture of predetermined amounts of hydrofluoric acid, ammonium fluoride and deionized water to prepare an etchant composition. The prepared composition was kept standing at room temperature and test samples were periodically withdrawn to measure the change of surface tension of the composition.
(§1) A preliminary testing was conducted prior to filtration to evaluate whether individual components of the claimed surfactant(s), would work individually, need modification, or require combining to give a basic understanding which would lead to synthesis of the surfactant(s) of the invention. Potential surfactant candidates were prepared and evaluated in an aqueous mixture comprised of about 35% by weight of ammonium fluoride, NH4F, and about 6.3% by weight of hydrofluoric acid, HF, (defined as BOE 7-1).
In this run, surfactant “H” was tested with an aqueous solution of mixed etchants consisting of about 85% by weight of sulfuric acid, about 5% by weight of nitric acid, and about 1.5% by weight hydrofluoric acid. 100 ppm (Sample 1) and 200 ppm (Sample 2) by weight of surfactant “H” were mixed into two separate samples of FS Etch. The surface tension of both unfiltered samples was measured 1 hour upon batch completion and after 15 days of storage.
Additional measurements of surface tension at 25° C. were carried out on unfiltered aqueous etchants of (1) 40% by weight ammonium fluoride, and (2) 9.2% by weight of hydrofluoric acid containing 100 ppm by weight of surfactant “H” (Table I).

[2] = Solubility of surfactant in BOE (saturation point); details: BOE 7-1; prior to filtration
Protocol: Potential surfactant candidates were prepared and evaluated in an aqueous mixture comprised of about 35% by weight of ammonium fluoride, NH4F, and about 6.3% by weight of hydrofluoric acid, HF, (defined as BOE 7-1).

[3] = Preliminary testing of potential surfactants: comments and overall assessment; details: BOE 7-1; prior to filtration
Protocol: as §1

SMILES | Surface Tension [1] [dynes/cm] | Solubility In BOE [2] | Comments [3] | Promising (Yes/No) [3]
NC1CCCCCC1 [Surfactant A, Cycloheptylamine] | 72 | ≦400 ppm | ST too high | No
NC1CCCCCCC1 [Surfactant B, Cyclooctylamine] | 65 | ≦600 ppm | ST too high | No
NC1CCCC1 [Surfactant C, Cyclopentylamine] | 65 | ≦400 ppm | ST too high | No
O=C(O)C(F)(F)C(F)(F)C(F)(F)C(F)(F)C(F)(F)C(F)(F)C(F)(F)F [Surfactant D, Perfluorooctanoic Acid] | 20 | ≦100 ppm | Precipitated | No
O=C(O)C(F)(F)C(F)(F)C(F)(F)C(F)(F)C(F)(F)C(F)(F)F [Surfactant E, Perfluoroheptanoic Acid] | 20 | ≦100 ppm | Precipitated | No
O=C(O)C(F)(F)C(F)(F)C(F)(F)C(F)(F)C(F)(F)C(F)(F)C(F)(F)C(F)(F)F [Surfactant F, Perfluorononanoic Acid] | 25 | ≦100 ppm | Precipitated | No
O=C(O)C(F)(F)C(F)(F)C(F)(F)C(F)(F)F [Surfactant G, Perfluoropentanoic Acid] | 24 | ≦100 ppm | Precipitated | No
